Measured values as given in US7022667B2, “O-derivatized nocathiacin derivatives” (Bristol-Myers Squibb Company, priority 2002, dated 2006).
In brackets after ≈: the same amount, converted by molar mass.

How the values were obtained:
Assay in all cases: MIC, broth micro dilution assay (NCCLS)
Type in all cases: cell-based
[1] = system: Streptococcus pneumoniae A28272; conditions: 50% Mueller-Hinton medium and 50% Todd Hewitt medium, 35° C., 18 hours
Description: (§1) The serial broth dilution method used Mueller-Hinton medium except for the Streptococcus pneumoniae which was tested in 50% Mueller-Hinton medium and 50% Todd Hewitt medium. The final bacterial inoculate contained approximately 5×10^5 cfu/well and was run on microtiter plates. The volume of each well was 100 μL and the plates were incubated at 35° C. for 18 hours in ambient air. The MIC was defined as the lowest drug concentration that prevented visible growth.

[2] = system: Enterococcus faecalis A20688; conditions: Mueller-Hinton medium, 35° C., 18 hours
Description: as §1

[3] = system: Staphylococcus aureus A15090; conditions: Mueller-Hinton medium, 35° C., 18 hours
Description: as §1

| SMILES | MIC (μg/mL) Streptococcus pneumoniae A28272 [1] [µg/mL] | MIC (μg/mL) Enterococcus faecalis A20688 [2] [µg/mL] | MIC (μg/mL) Staphylococcus aureus A15090 [3] [µg/mL] |
| --- | --- | --- | --- |
| C=C(NC(=O)c1csc(-c2nc3c(cc2OCCCS(=O)(=O)[O-])-c2nc(cs2)C(=O)NC(C(C)O)C(=O)N/C(=C(\C)OC)c2nc(cs2)C(=O)NC2c4nc(cs4)C(=O)NC(COC(=O)c4c5c6c(cccc6n4O)COC(=O)C(OC4CC(C)(O)C(N(C)C)C(C)O4)C2OC5)c2nc-3cs2)n1)C(N)=O.[Na+] (stereo not drawn) [Example 28] | 0.25 | 32 | 2.0 |
| C=C(NC(=O)c1csc(-c2nc3c(cc2OC(=O)C(C)(C)C(=O)OCc2ccccc2)-c2nc(cs2)C(=O)NC(C(C)O)C(=O)NC(=C(C)OC)c2nc(cs2)C(=O)NC2c4nc(cs4)C(=O)NC(COC(=O)c4c5c6c(cccc6n4O)COC(=O)C(OC4CC(C)(O)C(N(C)C)C(C)O4)C2OC5)c2nc-3cs2)n1)C(N)=O (stereo not drawn) [Example 31] | 0.06 (≈ 0.0365 µM) | 0.5 (≈ 0.305 µM) | 0.25 (≈ 0.152 µM) |
| C=C(NC(=O)c1csc(-c2nc3c(cc2OC(=O)c2ccc(Br)cc2)-c2nc(cs2)C(=O)NC(C(C)O)C(=O)NC(=C(C)OC)c2nc(cs2)C(=O)NC2c4nc(cs4)C(=O)NC(COC(=O)c4c5c6c(cccc6n4O)COC(=O)C(OC4CC(C)(O)C(N(C)C)C(C)O4)C2OC5)c2nc-3cs2)n1)C(N)=O (stereo not drawn) [Example 32] | 0.015 (≈ 0.00926 µM) | 1.0 (≈ 0.617 µM) | 1.0 (≈ 0.617 µM) |
| C=C(NC(=O)c1csc(-c2nc3c(cc2OP(=O)(OCc2ccccc2)OCc2ccccc2)-c2nc(cs2)C(=O)NC(C(C)O)C(=O)NC(=C(C)OC)c2nc(cs2)C(=O)NC2c4nc(cs4)C(=O)NC(COC(=O)c4c5c6c(cccc6n4O)COC(=O)C(OC4CC(C)(O)C(N(C)C)C(C)O4)C2OC5)c2nc-3cs2)n1)C(N)=O (stereo not drawn) [Example 34] | 0.125 (≈ 0.0736 µM) | 1.0 (≈ 0.589 µM) | 0.25 (≈ 0.147 µM) |
| C=C(NC(=O)c1csc(-c2nc3c(cc2OP(=O)(O)OCCCl)-c2nc(cs2)C(=O)NC(C(C)O)C(=O)NC(=C(C)OC)c2nc(cs2)C(=O)NC2c4nc(cs4)C(=O)NC(COC(=O)c4c5c6c(cccc6n4O)COC(=O)C(OC4CC(C)(O)C(N(C)C)C(C)O4)C2OC5)c2nc-3cs2)n1)C(N)=O (stereo not drawn) [Example 35] | 0.03 (≈ 0.019 µM) | 1.0 (≈ 0.633 µM) | 1.0 (≈ 0.633 µM) |
| C=C(NC(=O)c1csc(-c2nc3c(cc2O)-c2nc(cs2)C(=O)NC(C(C)O)C(=O)NC(=C(C)OC)c2nc(cs2)C(=O)NC2c4nc(cs4)C(=O)NC(COC(=O)c4c5c6c(cccc6n4OCCO)COC(=O)C(OC4CC(C)(O)C(N(C)C)C(C)O4)C2OC5)c2nc-3cs2)n1)C(N)=O (stereo not drawn) [Example 36] | 0.007 (≈ 0.00472 µM) | 0.25 (≈ 0.169 µM) | 0.25 (≈ 0.169 µM) |
| C=C(NC(=O)c1csc(-c2nc3c(cc2O)-c2nc(cs2)C(=O)NC(C(C)O)C(=O)NC(=C(C)OC)c2nc(cs2)C(=O)NC2c4nc(cs4)C(=O)NC(COC(=O)c4c5c6c(cccc6n4OCC(=O)OC)COC(=O)C(OC4CC(C)(O)C(N(C)C)C(C)O4)C2OC5)c2nc-3cs2)n1)C(N)=O (stereo not drawn) [Example 37] | 0.001 (≈ 0.000662 µM) | 0.06 (≈ 0.0397 µM) | 0.03 (≈ 0.0199 µM) |
| C=C(NC(=O)c1csc(-c2nc3c(cc2O)-c2nc(cs2)C(=O)NC(C(C)O)C(=O)NC(=C(C)OC)c2nc(cs2)C(=O)NC2c4nc(cs4)C(=O)NC(COC(=O)c4c5c6c(cccc6n4OCC4OC6OC(C)(C)OC6C6OC(C)(C)OC46)COC(=O)C(OC4CC(C)(O)C(N(C)C)C(C)O4)C2OC5)c2nc-3cs2)n1)C(N)=O (stereo not drawn) [Example 38] | 0.001 (≈ 0.000595 µM) | 0.03 (≈ 0.0179 µM) | 0.125 (≈ 0.0744 µM) |
| C=C(NC(=O)c1csc(-c2nc3c(cc2O)-c2nc(cs2)C(=O)NC(C(C)O)C(=O)NC(=C(C)OC)c2nc(cs2)C(=O)NC2c4nc(cs4)C(=O)NC(COC(=O)c4c5c6c(cccc6n4OCOP(=O)(OC(C)(C)C)OC(C)(C)C)COC(=O)C(OC4CC(C)(O)C(N(C)C)C(C)O4)C2OC5)c2nc-3cs2)n1)C(N)=O (stereo not drawn) [Example 40] | 0.015 (≈ 0.00904 µM) | 0.25 (≈ 0.151 µM) | 0.125 (≈ 0.0753 µM) |
| C=C(NC(=O)c1csc(-c2nc3c(cc2O)-c2nc(cs2)C(=O)NC(C(C)O)C(=O)NC(=C(C)OC)c2nc(cs2)C(=O)NC2c4nc(cs4)C(=O)NC(COC(=O)c4c5c6c(cccc6n4OCOP(=O)(OCC)OCC)COC(=O)C(OC4CC(C)(O)C(N(C)C)C(C)O4)C2OC5)c2nc-3cs2)n1)C(N)=O (stereo not drawn) [Example 41] | 0.001 (≈ 0.000624 µM) | 0.03 (≈ 0.0187 µM) | 0.015 (≈ 0.00935 µM) |
| C=C(NC(=O)c1csc(-c2nc3c(cc2O)-c2nc(cs2)C(=O)NC(C(C)O)C(=O)NC(=C(C)OC)c2nc(cs2)C(=O)NC2c4nc(cs4)C(=O)NC(COC(=O)c4c5c6c(cccc6n4OCCCN)COC(=O)C(OC4CC(C)(O)C(N(C)C)C(C)O4)C2OC5)c2nc-3cs2)n1)C(N)=O (stereo not drawn) [Example 42] | 0.06 (≈ 0.0401 µM) | 1.0 (≈ 0.669 µM) | 0.25 (≈ 0.167 µM) |
| C=C(NC(=O)c1csc(-c2nc3c(cc2O)-c2nc(cs2)C(=O)NC(C(C)O)C(=O)NC(=C(C)OC)c2nc(cs2)C(=O)NC2c4nc(cs4)C(=O)NC(COC(=O)c4c5c6c(cccc6n4OCCC(=O)[O-])COC(=O)C(OC4CC(C)(O)C(N(C)C)C(C)O4)C2OC5)c2nc-3cs2)n1)C(N)=O.[Na+] (stereo not drawn) [Example 44] | 0.03 | 0.25 | 0.125 |
| C=C(NC(=O)c1csc(-c2nc3c(cc2O)-c2nc(cs2)C(=O)NC(C(C)O)C(=O)NC(=C(C)OC)c2nc(cs2)C(=O)NC2c4nc(cs4)C(=O)NC(COC(=O)c4c5c6c(cccc6n4OCOCC[Si](C)(C)C)COC(=O)C(OC4CC(C)(O)C(N(C)C)C(C)O4)C2OC5)c2nc-3cs2)n1)C(N)=O (stereo not drawn) [Example 45] | 0.03 (≈ 0.0191 µM) | 1.0 (≈ 0.638 µM) | 2.0 (≈ 1.28 µM) |
| C=C(NC(=O)c1csc(-c2nc3c(cc2O)-c2nc(cs2)C(=O)NC(C(C)O)C(=O)NC(=C(C)OC)c2nc(cs2)C(=O)NC2c4nc(cs4)C(=O)NC(COC(=O)c4c5c6c(cccc6n4OCCn4ccnc4)COC(=O)C(OC4CC(C)(O)C(N(C)C)C(C)O4)C2OC5)c2nc-3cs2)n1)C(N)=O (stereo not drawn) [Example 46] | 0.015 (≈ 0.00979 µM) | 1.0 (≈ 0.653 µM) | 0.5 (≈ 0.326 µM) |
| C=C(NC(=O)c1csc(-c2nc3c(cc2O)-c2nc(cs2)C(=O)NC(C(C)O)C(=O)NC(=C(C)OC)c2nc(cs2)C(=O)NC2c4nc(cs4)C(=O)NC(COC(=O)c4c5c6c(cccc6n4OCCCNS(=O)(=O)c4cn(C)cn4)COC(=O)C(OC4CC(C)(O)C(N(C)C)C(C)O4)C2OC5)c2nc-3cs2)n1)C(N)=O (stereo not drawn) [Example 47] | 0.015 (≈ 0.00915 µM) | 0.25 (≈ 0.153 µM) | 0.06 (≈ 0.0366 µM) |
| C=C(NC(=O)c1csc(-c2nc3c(cc2O)-c2nc(cs2)C(=O)NC(C(C)O)C(=O)NC(=C(C)OC)c2nc(cs2)C(=O)NC2c4nc(cs4)C(=O)NC(COC(=O)c4c5c6c(cccc6n4OCCCNC(=N)N)COC(=O)C(OC4CC(C)(O)C(N(C)C)C(C)O4)C2OC5)c2nc-3cs2)n1)C(N)=O (stereo not drawn) [Example 48] | 0.03 (≈ 0.0195 µM) | 2 (≈ 1.3 µM) | 1.0 (≈ 0.651 µM) |
| C=C(NC(=O)c1csc(-c2nc3c(cc2O)-c2nc(cs2)C(=O)NC(C(C)O)C(=O)NC(=C(C)OC)c2nc(cs2)C(=O)NC2c4nc(cs4)C(=O)NC(COC(=O)c4c5c6c(cccc6n4OCCCNS(=O)(=O)N(C)C)COC(=O)C(OC4CC(C)(O)C(N(C)C)C(C)O4)C2OC5)c2nc-3cs2)n1)C(N)=O (stereo not drawn) [Example 49] | 0.007 (≈ 0.00437 µM) | 0.25 (≈ 0.156 µM) | 0.5 (≈ 0.312 µM) |
| C=C(NC(=O)c1csc(-c2nc3c(cc2O)-c2nc(cs2)C(=O)NC(C(C)O)C(=O)NC(=C(C)OC)c2nc(cs2)C(=O)NC2c4nc(cs4)C(=O)NC(COC(=O)c4c5c6c(cccc6n4OCCCN4CCN(C)CC4)COC(=O)C(OC4CC(C)(O)C(N(C)C)C(C)O4)C2OC5)c2nc-3cs2)n1)C(N)=O (stereo not drawn) [Example 50] | 0.03 (≈ 0.019 µM) | 1.0 (≈ 0.634 µM) | 1.0 (≈ 0.634 µM) |
| C=C(NC(=O)c1csc(-c2nc3c(cc2O)-c2nc(cs2)C(=O)NC(C(C)O)C(=O)NC(=C(C)OC)c2nc(cs2)C(=O)NC2c4nc(cs4)C(=O)NC(COC(=O)c4c5c6c(cccc6n4OCCCN(CC)CC)COC(=O)C(OC4CC(C)(O)C(N(C)C)C(C)O4)C2OC5)c2nc-3cs2)n1)C(N)=O (stereo not drawn) [Example 51] | 0.015 (≈ 0.00967 µM) | 0.125 (≈ 0.0806 µM) | 0.5 (≈ 0.322 µM) |
| COC(C)=C1NC(=O)C(C(C)O)NC(=O)c2csc(n2)-c2cc(O)c(-c3nc(C(N)=O)cs3)nc2-c2csc(n2)C2COC(=O)c3c4c5c(cccc5n3OCCCS(=O)(=O)O)COC(=O)C(OC3CC(C)(O)C(N(C)C)C(C)O3)C(OC4)C(NC(=O)c3csc1n3)c1nc(cs1)C(=O)N2 (stereo not drawn) [Example 53] | 0.125 (≈ 0.0839 µM) | 1.0 (≈ 0.671 µM) | 0.25 (≈ 0.168 µM) |
